Reference: patent publication US20190336460A1, “C[…] ACID OR PHARMACEUTICALLY ACCEPTABLE SALT THEREOF AS ACTIVE INGREDIENT FOR PREVENTING OR TREATING OBESITY OR METABOLIC SYNDROMES CAUSED BY OBESITY” (KOREA FOOD RESEARCH INSTITUTE, priority 2016, published 2019)
Several values for one entry are separate records, joined by “and”; a condition that tells them apart may be missing. Equal values may be shown once.

Experiments:
[1] = tested on: high-fat diet-induced obesity experimental animals (C57BL/6J mice); experiment: Blood analysis: serum lipid concentrations in high-fat diet-induced obesity mice; assay type: in vivo, mouse; details: for serum Cholesterol / serum HDL / serum LDL / serum Triglyceride / content of cholesterol, reduction compared with the high-fat diet control group / serum triglyceride, lower value compared with the high-fat diet control group: C57BL/6J mice, high-fat diet 13 weeks, 10 mmol; for serum Cholesterol / serum HDL / serum LDL / serum Triglyceride: oral once a day, 12 h fasted, mean ± S.D.; for content of cholesterol, reduction compared with the high-fat diet control group / serum triglyceride, lower value compared with the high-fat diet control group: oral; for LDL-cholesterol content compared with the high-fat diet control group (in words): mouse, in vivo
Experimental: (§1) In the present experiment, five-week-old C57BL/6J mice were purchased from Saeron Bio (Uiwang, Korea), and acclimated for 1 week before use in the experiment. The rearing room was controlled to have a temperature of 20±2° C., a humidity of 55±10%, and a light/darkness cycle of 12 hours during the experimental period. The experimental animals were divided into 6 groups according to the randomized block design, after 1-week of normal diet. The experimental groups were classified into Group A (normal diet group; n=10), Group B (high-fat diet control group; n=10), Group C (high-fat diet+sodium formate 10 mmol; n=9), Group D (high-fat diet+sodium butyrate 10 mmol; n=9), Group E (high-fat diet+sodium propionate 10 mmol; n=8), and Group F (high-fat diet+sodium acetate 10 mmol; n=4).
(§2) Water and feed were freely accessible. Groups A and B were orally administered with physiological saline, and the other groups were orally administered with corresponding organic acids once a day (2 μg/g bodyweight). For the test groups, obesity was induced by a high-fat diet for 13 weeks, and a high-fat diet (D12492; 60% of the calories) purchased from Research Diet (USA) was used in the experiment.
(§3) The body weights of the experimental animals were measured at a fixed time once a week during the experiment. The experimental animals were fasted for 12 hours before sacrifice, and blood was collected from eyes of the experimental animals anesthetized with ether. In order to prevent the coagulation of the blood after collection, the blood was placed in anti-coagulation tubes and left in an ice bath for 20 min. The collected blood samples were centrifuged at 3000 rpm for 10 min to separate serum therefrom, and refrigerated until use in the experiment. Thereafter, the kit through an enzymatic method was purchased from Young Dong Diagnostics (Yong-In, Korea) to measure the levels of blood lipids (triglyceride, cholesterol, HDL-Cholesterol, and LDL-Cholesterol). The organs were extracted, washed with physiological saline, dehydrated with a filter bed, and then weighed.

epididymal fat cells = experiment: Size measurement of epididymal fat cells (H&E staining, Image J); assay type: in vivo, mouse; details: C57BL/6J mice, high-fat diet 13 weeks, oral, 10 mmol; compared among groups and with high-fat diet control group
Experimental: as §1, §2
The immobilized tissue was sliced into 18 μm using a cryostat microtome, and fat cells were stained by hematoxylin and eosin (H&E) fat staining. The fat cells were decolorized using 60% isopropanol after the staining, and then imaged using a digital camera under a microscope. For size analysis of fat cells, the area of fat cells was measured using Image J Software (National Institute of Health, Maryland, USA).

[2] = tested on: high-fat diet-induced obesity experimental animals (C57BL/6J mice); experiment: Organ weights (fat tissues, prostate, liver, spleen) in high-fat diet-induced obesity mice; assay type: in vivo, mouse; details: high-fat diet 13 weeks, 10 mmol; for Brown fat weight / Epididymal fat weight / Kidney fat weight / Subcutaneous fat weight: oral once a day, mean ± S.D.
Experimental: as §1, §2, §3
The kidney fat, epididymal fat, subcutaneous fat, brown fat, prostate, liver, and spleen were extracted immediately after blood collection from the control and experimental groups, and washed with physiological saline, subjected to surface moisture removal, and then weighed.

[3] = tested on: high-fat diet-induced obesity experimental animals (C57BL/6J mice); experiment: Body weight change in high-fat diet-induced obesity mice orally given organic acid salts; assay type: in vivo, mouse; details: for average body weight after 13 weeks of rearing / reduction in body weight gain compared with the high-fat diet control group: C57BL/6J mice, high-fat diet 13 weeks, oral once a day; for average body weight after 13 weeks of rearing: 10 mmol (2 μg/g bodyweight); for reduction in body weight gain compared with the high-fat diet control group: 10 mmol
Experimental: as §1, §2, §3
The high-fat diet-induced obesity experimental animals (C57BL/6J mice) were orally administered with each 10 mmol corresponding organic acid for 13 weeks, and the weights of the mice were measured once a week during the rearing.

[4] = administered orally; cited from earlier work
[5] = oral, no significant difference

| Structure (SMILES) | serum Cholesterol [1] | serum HDL [1] | serum LDL [1] | serum Triglyceride [1] | content of cholesterol, reduction compared with the high-fat diet control group [1] | epididymal fat cell size (in words) (epididymal fat cells) | Brown fat weight [2] | Epididymal fat weight [2] | Kidney fat weight [2] | Subcutaneous fat weight [2] | weight of epididymal fat, lower value compared with the high-fat diet control group ([2]; oral) | average body weight after 13 weeks of rearing [3] | LDL-cholesterol content compared with the high-fat diet control group (in words) [1] | weight of subcutaneous fat, lower value compared with the high-fat diet control group ([2]; oral) | reduction in body weight gain compared with the high-fat diet control group [3] | serum triglyceride, lower value compared with the high-fat diet control group [1] | also measured |
| --- | --- | --- | --- | --- | --- | --- | --- | --- | --- | --- | --- | --- | --- | --- | --- | --- | --- |
| CC(=O)[O-].[Na+] [acetate, sodium acetate] | 114.86 ± 3.76^A mg/dl | 61.09 ± 2.21^A mg/dl | 32.34 ± 1.44^A mg/dl | 155.21±5.43 mg/dl and 155.21 ± 5.43^A mg/dl | 7.8% | smaller in that order of butyrate, propionate, formate, and acetate | 0.11 ± 0.03^A g | 2.31 ± 0.45^AB g | 0.66 g and 0.81 ± 0.07^BAB g | 1.74 ± 0.31^A g | 7.6% | 41.08 g |  |  |  |  | serum triglyceride compared with the high-fat diet control group (in words) ([1]; p<0.05): significantly higher value; weight of brown fat, higher value compared with the high-fat diet control group [2, 5]: 22.22%; weight of subcutaneous fat, higher value compared with the high-fat diet control group [2, 5]: 10.13%; body weight compared with the high-fat diet control group (in words) ([3]; after 13 weeks, p<0.05): no significant difference |
| CCCC(=O)[O-].[Na+] [butyrate, sodium butyrate] | 95.63 ± 3.87^B mg/dl | 55.99 ± 0.43^B mg/dl | 24.95 ± 1.23^D mg/dl | 128.01±14.72 mg/dl and 128.01 ± 14.72^B mg/dl |  | smaller in that order of butyrate, propionate, formate, and acetate | 0.09 ± 0.04^A g | 2.00 ± 0.29^B g | 0.71 ± 0.12^BC g | 1.16 g and 1.16 ± 0.25^B g | 20% | 31.25 g | lower values | 26.58% | 15.6% |  |  |
| O=C[O-].[Na+] [formate, sodium formate] | 79.00 ± 2.81^C mg/dl | 41.51 ± 3.56^D mg/dl | 26.24 ± 0.29^CD mg/dl | 99.48±14.18 mg/dl and 99.48 ± 14.18^C mg/dl | 36.6% | smaller in that order of butyrate, propionate, formate, and acetate | 0.09 ± 0.03^A g | 2.01 ± 0.24^B g | 0.72 g and 0.72 ± 0.08^BC g | 1.08 g and 1.08 ± 0.21^B g | 19.6% | 36.78 g | lower values | 31.16% | 10.4% | 23.54% | oral amount causing no side effect in the human body [4]: up to 10 g |
| CCC(=O)[O-].[Na+] [propionate, sodium propionate] | 95.63 ± 5.41^B mg/dl | 50.12 ± 1.69^C mg/dl | 30.41 ± 0.51^B mg/dl | 120.68±10.07 mg/dl and 120.68 ± 10.07^B mg/dl |  | smaller in that order of butyrate, propionate, formate, and acetate | 0.09 ± 0.02^A g | 1.91 ± 0.44^B g | 0.71 g and 0.66 ± 0.09^C g | 1.07 g and 1.07 ± 0.24^B g | 23.6% | 30.05 g |  | 32.27% | 18.3% | 7.2% |  |
